Assay results reported in article PMC10741632, “Detection of Dibutyl Phthalate in Surface Water by Fluorescence Polarization Immunoassay” (Biosensors, 2023).
Values after ≈ are worked out from the molar mass of the structure shown.

Tested on: monoclonal antibody against DBP (MAb-DBP)
Assay: competitive fluorescence polarization immunoassay with DBP-AMF tracer ([…] MAb-DBP, […] tracer)
Assay type: binding, Mus musculus

CCCCOC(=O)c1ccccc1C(=O)OCCCC [Dibutyl phthalate]
IC50: 0.04 ± 0.002 µg/mL (≈ 0.144 µM)
